What all share (assay type): in vivo
One assay concerns kochia (Kochia scoparia). The assay is described as follows: Test B pre-/postemergence plant response. The method in brief:
(§1)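 Greenhouse pots, loam/sand soil; compound formulated with surfactant in non-phytotoxic solvent. Preemergence soil spray and postemergence spray at 1–2 leaf stage run simultaneously. Visual injury, 0–100, about 10 days post-treatment.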

In assay [1] the test system is Italian ryegrass (Lolium multiflorum). The assay is described as follows: Test B pre-/postemergence plant response. Summed up: as §1
Assay [2] relates to ragweed (common ragweed, Ambrosia elatior). Description: Test B pre-/postemergence plant response. Summed up:
as §1

The subject of assay [3] is blackgrass (Alopecurus myosuroides). Description: Test B postemergence plant response. Summed up:
(§2)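 Injury was assessed visually about 10 days after treatment, scored from 0 (no effect) to 100 (complete control) by comparison with untreated controls. Test chemicals had been applied postemergence to potted plants at the one- to two-leaf stage, grown in loam soil and sand in a greenhouse.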

The test system of assay [4] is galium (catchweed bedstraw, Galium aparine). The assay is described as follows: Test B postemergence plant response. The method in brief: as §2
The mark [5] stands for this setting: 31 g ai/ha, Preemergence, 0 to 100 scale where 0 is no effect and 100 is complete control.
Where [6] appears, read: 125 g ai/ha, postemergence, 0 to 100 scale, 0 no effect, 100 complete control.
Where [7] appears, read: Postemergence, 31 g ai/ha, 0 to 100 scale (0 no effect, 100 complete control).
Setting [8] is: Preemergence, 125 g ai/ha, 0 to 100 scale (0 no effect, 100 complete control).
[9] abbreviates: 31 g ai/ha, Postemergence, 0 to 100 scale, 0 no effect, 100 complete control.
The mark [10] stands for this setting: Postemergence, 500 g ai/ha, 0 to 100 scale (0 no effect, 100 complete control).
[11] abbreviates: Preemergence, 500 g ai/ha, 0 to 100 scale where 0 is no effect and 100 is complete control.
Setting [12] is: Postemergence, 1000 g ai/ha, 0 to 100 scale (0 no effect, 100 complete control).
[13] abbreviates: Preemergence, 1000 g ai/ha, 0 to 100 scale (0 no effect, 100 complete control).
The mark [14] stands for this setting: Preemergence, 125 g ai/ha, 0 to 100 scale where 0 is no effect and 100 is complete control.

Structures are written as SMILES.

Results on eleven compounds are retold here after patent publication US10131652B2, “Pyrimidinyloxy benzene derivatives as herbicides” (E. I. DU PONT DE NEMOURS AND COMPANY, priority 2014, dated 2018).

For `FC(F)(Cl)c1cc(-c2ccccc2Oc2ncc(Cl)cn2)no1` [Compound 143], the “Plant response rating, Kochia” value worked out at 30 in the assay on kochia (Kochia scoparia) (setting [5]), 100 with kochia (Kochia scoparia) (setting [6]) and 100 in the assay on kochia (Kochia scoparia) (setting [7]). For the same compound, the “Kochia plant response rating” value in the assay on kochia (Kochia scoparia) (setting [8]) is recorded as 90. Further, the results for the “Plant response rating, Ryegrass, Italian” value in assay [1] (setting [5]), in assay [1] (setting [6]) and in assay [1] (setting [7]) were 0, 50 and 0, respectively. Moreover, the “Ryegrass, Italian plant response rating” value in assay [1] (setting [8]) amounted to 60. Moreover, the “Plant response rating, Ragweed” value was determined as 0 in assay [2] (setting [5]), 20 in assay [2] (setting [6]) and 0 in assay [2] (setting [7]). Moreover, the “Ragweed plant response rating” value in assay [2] (setting [8]) was determined as 30. Further, the “Plant response rating, Blackgrass” value is reported as 60 in assay [3] (setting [6]) and 30 in assay [3] (setting [7]). In addition, the “Plant response rating, Galium” value in assay [4] (setting [6]) was found to be 100; in assay [4] (setting [7]), 50.

As to `Fc1cccc(Oc2ncc(Cl)cn2)c1-c1cc(C2CC2)on1` [Compound 130], the “Plant response rating, Kochia” value in the assay on kochia (Kochia scoparia) (setting [5]) was found to be 50; in the assay with kochia (Kochia scoparia) (setting [6]), 90. Also, in the assay with kochia (Kochia scoparia) (setting [8]), the “Kochia plant response rating” value is 70. For the same compound, the “Plant response rating, Ryegrass, Italian” value is 20 in assay [1] (setting [5]) and 60 in assay [1] (setting [6]). The “Ryegrass, Italian plant response rating” value in assay [1] (setting [8]) turned out to be 50. The “Plant response rating, Ragweed” value in assay [2] (setting [5]) was found to be 10; in assay [2] (setting [6]), 60. For the same compound, the “Ragweed plant response rating” value in assay [2] (setting [8]) was 20. Moreover, the “Plant response rating, Blackgrass” value is 50 in assay [3] (setting [9]) and 80 in assay [3] (setting [6]). Also, in assay [4] (setting [6]), the “Plant response rating, Galium” value is given as 90.

Regarding `FC(F)(F)c1cc(-c2c(Br)cccc2Oc2ncc(Cl)cn2)no1` [Compound 170], the “Plant response rating, Kochia” value with kochia (Kochia scoparia) (setting [6]) amounted to 70; in the assay on kochia (Kochia scoparia) (setting [10]) it was 100; in the assay on kochia (Kochia scoparia) (setting [11]), 80. In addition, the “Kochia plant response rating” value in the assay with kochia (Kochia scoparia) (setting [8]) is reported as 30. Further, the results for the “Plant response rating, Ryegrass, Italian” value in assay [1] (setting [6]), in assay [1] (setting [10]) and in assay [1] (setting [11]) were 0, 20 and 20, respectively. For the same compound, the “Ryegrass, Italian plant response rating” value in assay [1] (setting [8]) is 0. For the same compound, the “Plant response rating, Ragweed” value in assay [2] (setting [6]) came out at 10; in assay [2] (setting [10]) it was 50; in assay [2] (setting [11]) it was 60. Moreover, the “Ragweed plant response rating” value in assay [2] (setting [8]) is 20. Moreover, the “Plant response rating, Blackgrass” value came to 50 in assay [3] (setting [6]) and 60 in assay [3] (setting [10]). Moreover, the entries for the “Plant response rating, Galium” value in assay [4] (setting [6]) and in assay [4] (setting [10]) were 80 and 100, respectively.

In the case of `FC(F)Oc1cccc(Oc2ncc(Cl)cn2)c1-c1cc(C(F)F)on1` [Compound 131], the “Plant response rating, Kochia” value worked out at 0 in the assay on kochia (Kochia scoparia) (setting [5]) and 70 in the assay on kochia (Kochia scoparia) (setting [6]). The “Kochia plant response rating” value in the assay on kochia (Kochia scoparia) (setting [8]) came to 10. Also, the “Plant response rating, Ryegrass, Italian” value in assay [1] (setting [5]) was 20; in assay [1] (setting [6]), 70. In addition, in assay [1] (setting [8]), the “Ryegrass, Italian plant response rating” value came to 90. Also, the “Plant response rating, Ragweed” value in assay [2] (setting [5]) stood at 20; in assay [2] (setting [6]), 70. Moreover, the “Ragweed plant response rating” value in assay [2] (setting [8]) stood at 60. The results for the “Plant response rating, Blackgrass” value in assay [3] (setting [9]) and in assay [3] (setting [6]) were 50 and 80, respectively. Besides, the “Plant response rating, Galium” value in assay [4] (setting [6]) is on record as 90.

As to `FCc1cc(-c2c(Br)cccc2Oc2ncc(Cl)cn2)no1` [Compound 191], the “Plant response rating, Kochia” value in the assay with kochia (Kochia scoparia) (setting [12]) and with kochia (Kochia scoparia) (setting [13]) was 100 throughout. Besides, the “Plant response rating, Ryegrass, Italian” value turned out to be 100 in assay [1] (setting [12]) and 90 in assay [1] (setting [13]). Moreover, the “Plant response rating, Ragweed” value in assay [2] (setting [12]) and in assay [2] (setting [13]) was 90 in each case. Besides, in assay [3] (setting [12]), the “Plant response rating, Blackgrass” value is 100. Also, the “Plant response rating, Galium” value in assay [4] (setting [12]) is 100.

As to `N#Cc1cccc(Oc2ncc(Cl)cn2)c1-c1cc(C(F)F)on1` [Compound 180], the “Plant response rating, Kochia” value in the assay with kochia (Kochia scoparia) (setting [6]), in the assay with kochia (Kochia scoparia) (setting [10]) and in the assay with kochia (Kochia scoparia) (setting [11]) was 100 each time. In the assay with kochia (Kochia scoparia) (setting [8]), the “Kochia plant response rating” value turned out to be 100. Moreover, the “Plant response rating, Ryegrass, Italian” value in assay [1] (setting [6]) amounted to 100; in assay [1] (setting [10]), 100; in assay [1] (setting [11]), 70. Besides, the “Ryegrass, Italian plant response rating” value in assay [1] (setting [8]) worked out at 20. Besides, the “Plant response rating, Ragweed” value worked out at 50 in assay [2] (setting [6]), 70 in assay [2] (setting [10]) and 70 in assay [2] (setting [11]). Further, the “Ragweed plant response rating” value in assay [2] (setting [8]) came out at 50. Also, the “Plant response rating, Blackgrass” value in assay [3] (setting [6]) and in assay [3] (setting [10]) was 90 throughout. Moreover, the “Plant response rating, Galium” value in assay [4] (setting [6]) and in assay [4] (setting [10]) was 100 in each case.

Take `FC(F)c1cc(-c2c(Cl)cccc2Oc2ncc(Br)cn2)on1` [Compound 121]: the “Plant response rating, Kochia” value with kochia (Kochia scoparia) (setting [9]) is on record as 90; in the assay with kochia (Kochia scoparia) (setting [5]), 60; with kochia (Kochia scoparia) (setting [6]) it was 90; with kochia (Kochia scoparia) (setting [14]) it was 100. Moreover, the “Plant response rating, Ryegrass, Italian” value was found to be 50 in assay [1] (setting [9]), 30 in assay [1] (setting [5]) and 70 in assay [1] (setting [6]). For the same compound, the “Plant response rating, Ragweed” value in assay [2] (setting [9]) was determined as 50; in assay [2] (setting [5]), 10; in assay [2] (setting [6]) it was 60. Besides, the “Plant response rating, Blackgrass” value was determined as 50 in assay [3] (setting [9]) and 80 in assay [3] (setting [6]). Also, the “Plant response rating, Galium” value in assay [4] (setting [9]) and in assay [4] (setting [6]) was 100 throughout.

Take `Clc1cnc(Oc2ccccc2-c2cc(C3CC3)on2)nc1` [Compound 183]: the “Plant response rating, Kochia” value with kochia (Kochia scoparia) (setting [6]), with kochia (Kochia scoparia) (setting [10]) and with kochia (Kochia scoparia) (setting [11]) was 100 throughout. Moreover, the “Kochia plant response rating” value in the assay with kochia (Kochia scoparia) (setting [8]) came to 80. Also, the “Plant response rating, Ryegrass, Italian” value in assay [1] (setting [6]) came out at 40; in assay [1] (setting [10]) it was 70; in assay [1] (setting [11]) it was 40. For the same compound, the “Ryegrass, Italian plant response rating” value in assay [1] (setting [8]) is listed as 20. Further, the “Plant response rating, Ragweed” value was determined as 20 in assay [2] (setting [6]), 30 in assay [2] (setting [10]) and 60 in assay [2] (setting [11]). For the same compound, in assay [2] (setting [8]), the “Ragweed plant response rating” value stood at 0. Moreover, the “Plant response rating, Blackgrass” value in assay [3] (setting [6]) was 80; in assay [3] (setting [10]), 90. The “Plant response rating, Galium” value in assay [4] (setting [6]) and in assay [4] (setting [10]) was 100 each time.

As for `Fc1cccc(Oc2ncc(Br)cn2)c1-c1cc(C(F)F)on1` [Compound 118], the “Plant response rating, Kochia” value is given as 100 in the assay with kochia (Kochia scoparia) (setting [9]), 80 in the assay on kochia (Kochia scoparia) (setting [5]), 100 with kochia (Kochia scoparia) (setting [6]) and 100 with kochia (Kochia scoparia) (setting [14]). The “Plant response rating, Ryegrass, Italian” value in assay [1] (setting [9]) worked out at 20; in assay [1] (setting [5]) it was 20; in assay [1] (setting [6]), 80. Moreover, the “Plant response rating, Ragweed” value in assay [2] (setting [9]) is reported as 30; in assay [2] (setting [5]) it was 20; in assay [2] (setting [6]) it was 50. The “Plant response rating, Blackgrass” value in assay [3] (setting [9]) is reported as 60; in assay [3] (setting [6]), 100. The “Plant response rating, Galium” value in assay [4] (setting [9]) and in assay [4] (setting [6]) was 100 in each case.

Turning to `FC(Cl)c1cc(-c2ccccc2Oc2ncc(Cl)cn2)no1` (stereo not shown) [Compound 116], the “Plant response rating, Kochia” value in the assay on kochia (Kochia scoparia) (setting [9]) came to 90; with kochia (Kochia scoparia) (setting [5]) it was 60; in the assay on kochia (Kochia scoparia) (setting [6]), 90; with kochia (Kochia scoparia) (setting [14]), 60. Besides, the “Plant response rating, Ryegrass, Italian” value was found to be 0 in assay [1] (setting [9]), 0 in assay [1] (setting [5]) and 30 in assay [1] (setting [6]). Besides, the “Plant response rating, Ragweed” value is recorded as 20 in assay [2] (setting [9]), 0 in assay [2] (setting [5]) and 40 in assay [2] (setting [6]). Also, the “Plant response rating, Blackgrass” value in assay [3] (setting [9]) was 20; in assay [3] (setting [6]), 30. In addition, the “Plant response rating, Galium” value in assay [4] (setting [9]) is 60; in assay [4] (setting [6]) it was 70.

On to `FC(F)(F)c1cc(-c2c(I)cccc2Oc2ncc(Cl)cn2)no1` [Compound 156], for which the results for the “Plant response rating, Kochia” value in the assay on kochia (Kochia scoparia) (setting [6]), in the assay with kochia (Kochia scoparia) (setting [10]) and in the assay with kochia (Kochia scoparia) (setting [11]) were 90, 90 and 40, respectively. In addition, the “Kochia plant response rating” value in the assay with kochia (Kochia scoparia) (setting [8]) came to 20. Also, the “Plant response rating, Ryegrass, Italian” value amounted to 30 in assay [1] (setting [6]), 70 in assay [1] (setting [10]) and 0 in assay [1] (setting [11]). In assay [1] (setting [8]), the “Ryegrass, Italian plant response rating” value was 0. Moreover, the “Plant response rating, Ragweed” value stood at 20 in assay [2] (setting [6]), 40 in assay [2] (setting [10]) and 0 in assay [2] (setting [11]). Also, the “Ragweed plant response rating” value in assay [2] (setting [8]) is 0. Also, the “Plant response rating, Blackgrass” value in assay [3] (setting [6]) turned out to be 20; in assay [3] (setting [10]), 40. Besides, the “Plant response rating, Galium” value in assay [4] (setting [6]) stood at 90; in assay [4] (setting [10]) it was 100.
